From paper PMC10613275 (Scientific Reports, 2023)
Like-named read-outs stand apart in the source and are kept apart here. Marks after values point to notes of the source that are not given here.

Legend:
androgen receptor = assay: Androgenic activity, transactivation luciferase assay in MDA-kb2; settings: 1 nm–100 µM, MDA-kb2
Source text: Results were expressed as fold induction (FI), i.e. fold increase compared to vehicle control. According to EPA[28], FI of positive control should be above 4 to meet the performance standard.

dogs = settings: dog, in vivo; cited from earlier work
[1] = system: S. typhimurium and E. coli, CHO and Chinese hamster V79 cells; settings: cited from earlier work
HaCaT cells = settings: 10 µM ref 2; cited from earlier work
[2] = Intestinal absorption, Caco-2 intestinal barrier model in vitro; format: in vitro ADME, human; settings: human
Caco-2 cells = assay: as above; format: in vitro ADME, human; settings: lilial 1 mM, 4 h
[3] = system: ARE-Nrf2 luciferase (KeratinoSens); design: method as in PMID 23576290; settings: cited from earlier work
Hek293 cells = settings: Hek293 ref 2; cited from earlier work
[4] = system: MCF-7 human breast cancer cells; settings: cited from earlier work
[5] = design: method as in PMID 32461162; settings: cited from earlier work
[6] = system: NRF2 protein in THP-1 cells; settings: 650 µM, 5 h ref 15; cited from earlier work
[7] = system: fertilized eggs of white turkey (Meleagris gallopavo); settings: 10 mg/egg ref 6; cited from earlier work
mouse lymphoma cells = system: mouse lymphoma cells; design: method as in earlier work; settings: cited from earlier work
MCF7 cells = settings: MCF7 ref 2; cited from earlier work
NRF2-ARE signal pathway = NRF2-ARE signal pathway activation, luciferase reporter in transfected HEK293; format: cell-based, human; settings: HEK293, 100 µM (Table 1), 18 h
Source text: […]. HEK293 cells were transiently transfected with reporter plasmid pGL4.32 (luc2P/NF-κB-RE/Hygro, Promega Corporation, Madison, Wisconsin, USA) or pGL4.37 (luc2P/NRF2-ARE/Hygro) using FuGENE (Promega Corporation). Plasmid pEGFP-C1 carrying the gene for green fluorescent protein (GFP) was co-transfected with the reporter plasmids as a normalization plasmid enabling normalization of the signal to transfection level. To test the activation of NF-κB pathway, TNFα (in the range from 13 to 200 pg/ml) as a positive control or samples (50 µM) were incubated with the cells for 5 h. […] The fluorescence (488/513 nm) was determined using SpectraMax i3x Multi-Mode Microplate Reader (Molecular Devices, San Jose, California, USA). Subsequent quantification of luciferase activity was performed using the Bright-Glo™ Luciferase Assay System (Promega Corporation) according to the manufacturer’s instructions.

NF-κB signal pathway = NF-κB signal pathway activation, luciferase reporter in transfected HEK293; format: cell-based, human; settings: HEK293, 100 µM (Table 1), 5 h
Source text: […]. HEK293 cells were transiently transfected with reporter plasmid pGL4.32 (luc2P/NF-κB-RE/Hygro, Promega Corporation, Madison, Wisconsin, USA) or pGL4.37 (luc2P/NRF2-ARE/Hygro) using FuGENE (Promega Corporation). Plasmid pEGFP-C1 carrying the gene for green fluorescent protein (GFP) was co-transfected with the reporter plasmids as a normalization plasmid enabling normalization of the signal to transfection level. […] To test the activation of NRF2-ARE pathway, tert-butyl hydroquinone (TBHQ, in the range from 4 to 63 µM) as a positive control or samples (50 µM) were incubated with the cells for 18 h. The fluorescence (488/513 nm) was determined using SpectraMax i3x Multi-Mode Microplate Reader (Molecular Devices, San Jose, California, USA). Subsequent quantification of luciferase activity was performed using the Bright-Glo™ Luciferase Assay System (Promega Corporation) according to the manufacturer’s instructions.

CHO-K1 cells [8] = format: cell-based, Chinese hamster; settings: for MoA (mean fluorescence values over area of the nuclei): lilial 100 µM, PC 30 μM
Experimental: (§1) Briefly, HeLa and CHO-K1 cells were seeded at a concentration of 1 × 10^5 cells/ml into the 96-well plates. CHO-K1 cells were used for comparison with HPRT test. HeLa cells were recommended by the manufacturer of the kit. After 24 h, cells were rinsed with PBS and cultivation medium (“Cell lines” Section) without ATB, with a reduced content of FBS (5%) was added. 30 µM valinomycin (in DMSO) was used as a positive control Samples were applied in the presence of non-toxic sample concentrations, i.e. 100 µM either with or without S9 mix. […] Cells were photographed using a fluorescence microscope (Olympus IX83); filters: DAPI (500 ms) and Cy3 (500 ms). Bioimage analysis in ImageJ software was performed as described previously.

HeLa cells = assay: γH2AX biomarker-based genotoxicity assay, HeLa; format: cell-based, human; settings: for MoA (mean fluorescence values over area of the nuclei): PC 30 μM
Experimental: as §1

[9] = design: method as in earlier work; settings: guinea pigs, 1% p-BMHCA in ethanol, 120 µg substance/cm^2, 16 h ref 4; cited from earlier work
[10] = system: complexes I and II of the electron transport chain; settings: cited from earlier work
CHO-K1 cells [11] = assay: Cytotoxicity, cell viability (resazurin assay), CHO-K1, with or without S9 mix; settings: 1 day
Salmonella strains = settings: up to 5000 µg/plate with or without metabolic activation ref 4; cited from earlier work

CC(C=O)Cc1ccc(C(C)(C)C)cc1 (stereo not drawn) [Lilial, 3-(4-(tert-butyl)phenyl)-2-methylpropanal]
Androgenic activity (agonist) result (androgen receptor): Non active up to 100 µM
Androgenic activity (agonist) result (androgen receptor; listed as lilial): no activity was detected
Oral dose that reduced body weight, gave clinical and systemic toxicity (dogs): ≥ 200 mg/kg/day
Genotoxic and mutagenic potential [1]: No genotoxic and mutagenic potential
Decrease in cell viability (HaCaT cells): 65%
recovery at 4 h, 1 mM ([2]; Caco-2, lilial 1 mM, 4 h, all compartments): ~80%
Papp at 4 h, 1 mM ([2]; Caco-2, read-out: Papp (apparent permeability coefficient)): 21 ×10⁻⁶ cm/s
Lilial (%) in Caco-2 cells (Caco-2 cells): 13.1 ± 5.2%
Lilial (%) in apical medium (Caco-2 cells): 32.3 ± 2.0%
Lilial (%) in basolateral medium (Caco-2 cells): 34.1 ± 3.4%
Recovery (Caco-2 cells; all compartments): 79.5%
KeratinoSens assay result [3]: negative
Effect on cell viability (Hek293 cells): no negative effect
Estrogenic activity (expression of transfected reporter and endogenous pS2 gene) ([4]; MCF7 in vitro ref 8): very weak estrogenic activity
Cell doublings ([4]; lilial 100 µM, estrogen 10 nM, unaffected control 1.8 doublings ref 8): 2.4 doublings
Dermal absorption value ([5]; hydroalcoholic-based fragrances and deodorant/antiperspirant products ref 3): 13.5%
Dermal absorption value ([5]; oil-in-water-based products ref 3): 8.9%
Dermal absorption value ([5]; water-in-oil-based products ref 3): 10.5%
Level of NRF2 protein [6]: significant increase
DNA strand breaks in the comet assay [7]: 2.0 fold
Mouse lymphoma assay outcome (mouse lymphoma cells): negative outcome
Effect on cell viability (MCF7 cells): no negative effect
NRF2-ARE signal pathway activation result (NRF2-ARE signal pathway): Non activator
NRF2-ARE signal pathway activation result (NRF2-ARE signal pathway; listed as lilial): neither the NF-kB (Fig. 7) nor NRF2 (Fig. 8) signalling pathway was activated
NF-κB signal pathway activation result (NF-κB signal pathway): Non activator
NF-κB signal pathway activation result (NF-κB signal pathway; listed as lilial): neither the NF-kB (Fig. 7) nor NRF2 (Fig. 8) signalling pathway was activated
Genotoxicity result (CHO-K1 cells [8]; CHO-K1, 100 µM): Inconclusive
MoA (mean fluorescence values over area of the nuclei) (CHO-K1 cells [8]; CHO-K1, 4h_S9): 1.10*
MoA (mean fluorescence values over area of the nuclei) (CHO-K1 cells [8]; CHO-K1, 4 h, without S9): 0.52
MoA (mean fluorescence values over area of the nuclei) (CHO-K1 cells [8]; CHO-K1, 24 h): 0.99
Genotoxicity result (HeLa cells; 100 µM): Non genotoxic
MoA (mean fluorescence values over area of the nuclei) (HeLa cells; 4h_S9, lilial 100 µM): 0.20
MoA (mean fluorescence values over area of the nuclei) (HeLa cells; 4 h, without S9, lilial 100 µM): 0.11
MoA (mean fluorescence values over area of the nuclei) (HeLa cells; 24 h, lilial 100 µM): 0.03
In vitro dermal absorption [9]: 25.7%
Effect on complexes I and II of the electron transport chain [10]: inhibit complexes I and II
Toxic concentration (CHO-K1 cells [11]; 5 nm–500 µM, without S9): ≥ 250 µM
Cytotoxicity result after metabolization by the S9 mix (CHO-K1 cells [11]; up to 500 µM, with S9 mix): no cytotoxicity
Mutagenic activity, Ames test (Salmonella strains): increased number of revertant colonies were detected only for the Salmonella strain TA1535, but it was not reproducible
